We go through 18 compounds from US12522594B2, “2-heteroaryl-3-oxo-2,3-dihydropyridazine-4-carboxamides for the treatment of cancer” (Deutsches Krebsforschungszentrum, priority 2017, dated 2026).

pIC50: −log10 of the molar value. A value given as a limit tells only on which side of the number the result lay.

Common to all, as to type: cell-based
The target of assay [1] is T1, AHR (Homo sapiens, UniProt P35869).
T1 sequence (P35869 11-848): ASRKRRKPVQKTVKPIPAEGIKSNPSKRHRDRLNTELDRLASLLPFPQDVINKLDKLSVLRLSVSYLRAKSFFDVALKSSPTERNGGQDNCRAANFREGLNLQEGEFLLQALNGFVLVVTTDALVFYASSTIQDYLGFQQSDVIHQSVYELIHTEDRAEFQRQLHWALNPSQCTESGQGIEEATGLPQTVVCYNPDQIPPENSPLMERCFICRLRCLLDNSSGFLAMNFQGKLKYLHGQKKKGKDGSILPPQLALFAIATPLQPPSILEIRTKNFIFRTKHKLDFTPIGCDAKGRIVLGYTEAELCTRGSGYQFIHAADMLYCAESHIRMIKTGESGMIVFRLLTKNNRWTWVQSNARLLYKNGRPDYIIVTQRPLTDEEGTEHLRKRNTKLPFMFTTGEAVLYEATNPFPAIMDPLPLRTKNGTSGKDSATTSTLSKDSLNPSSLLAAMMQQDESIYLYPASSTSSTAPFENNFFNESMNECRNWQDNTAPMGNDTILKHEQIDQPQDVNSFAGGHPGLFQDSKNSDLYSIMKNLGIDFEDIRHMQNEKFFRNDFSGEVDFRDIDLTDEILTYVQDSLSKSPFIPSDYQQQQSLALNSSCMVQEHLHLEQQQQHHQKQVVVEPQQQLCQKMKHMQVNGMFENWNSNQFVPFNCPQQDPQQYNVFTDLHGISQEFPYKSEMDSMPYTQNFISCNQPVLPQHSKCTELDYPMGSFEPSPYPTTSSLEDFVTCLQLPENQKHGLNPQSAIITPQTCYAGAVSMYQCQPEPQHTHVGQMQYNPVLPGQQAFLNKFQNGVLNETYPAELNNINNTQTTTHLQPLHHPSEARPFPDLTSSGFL
Description: In vitro assay 2: agonism in human cell line (transactivation assay, U87 cells, DRE firefly luciferase reporter). Details: host or cells: U87 glioblastoma cells, stably transfected with DRE firefly luciferase and renilla reporter constructs. The settings on record: no kynurenic acid, 20 hours, read-out: Assay 2: AHR-luc Hum Agonism IC50. The essentials: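 U87 glioblastoma cells with endogenous AHR, stably carrying DRE-driven firefly luciferase and constitutive renilla reporters. 300 uM kynurenic acid served as positive activation control; data normalized to positive and negative controls.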
A general note: A reporter such as luciferase makes a cellular process visible.

Assay [2] addresses T1, AHR. The assay is described as follows: In vitro assay 3: AHR-regulated CYP1A1 expression in human cell line (U937, qPCR, KA stimulation). Particulars: U937 cells, 200 uM KA, 6 hours, CYP1A1 expression by qPCR; read-out: Assay 3: Hum CYP1A1 Antagonism IC50. The essentials: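 U937 human monocytic cells were stimulated with 200 uM KA for 6 h, with or without compound at eight concentrations from 1 nM to 3 uM, in duplicate. CYP1A1 mRNA was quantified by Taqman qPCR as fold expression normalised to HPRT. Unstimulated cells served as negative control.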
On the technique in general: In qPCR the cycle at which signal appears reflects the starting amount.

Assay [3] deals with T1, AHR. Description: In vitro assay 1: antagonism in human cell line (transactivation assay, U87 cells prestimulated with kynurenic acid, DRE firefly luciferase reporter). Particulars: 150 uM kynurenic acid, 20 hours, read-out: Assay 1: AHR-luc Hum Antagonism IC50. More on the design: host or cells: U87 glioblastoma cells, stably transfected with DRE firefly luciferase and renilla reporter constructs. The gist of the method: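 U87 glioblastoma cells with endogenous AHR, stably carrying a DRE-driven firefly luciferase reporter and a constitutive renilla reporter. Cells prestimulated with the AHR agonist kynurenic acid before compound addition; data normalized to positive and negative controls.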

Usually pIC50 stands for the negative decadic logarithm of the IC50, by convention in mol/L. With `Cn1cc(-n2nc(-c3ccc(Cl)cc3)cc(C(=O)N[C@@H](C#N)CO)c2=O)cn1` [Example 227, 6-(4-Chlorophenyl)-N-[(1S)-1-cyano-2-hydroxyethyl]-2-(1-methyl-1H-pyrazol-4-yl)-3-oxo-2,3-dihydropyridazine-4-carboxamide], the figures for the negative-log IC50 (pIC50) in assay [1], in assay [2] and in assay [3] were < 4.70, 7.94 and 8.22, respectively.

As to `Cn1cc(-n2nc(-c3ccc(Cl)cc3)cc(C(=O)NCC(O)C(F)(F)F)c2=O)cn1` (single isomer, unassigned; (-)) [Example 19, (−)-6-(4-Chlorophenyl)-2-(1-methyl-1H-pyrazol-4-yl)-3-oxo-N-(3,3,3-trifluoro-2-hydroxypropyl)-2,3-dihydropyridazine-4-carboxamide], the figures for the pIC50 in assay [1], in assay [2] and in assay [3] were < 4.70, 8.19 and 8.41, respectively.

For `C[C@@H](NC(=O)c1cc(-c2ccc(C(F)(F)F)cc2)nn(-c2cccnc2)c1=O)C(C)(C)O` [Example 234, N-[(2R)-3-Hydroxy-3-methylbutan-2-yl]-3-oxo-2-(pyridin-3-yl)-6-[4-(trifluoromethyl)phenyl]-2,3-dihydropyridazine-4-carboxamide], the pIC50 is < 4.70 in assay [1], 8.02 in assay [2] and 8.07 in assay [3].

Regarding `O=C(N[C@@H]1CC[C@@H]1O)c1cc(-c2ccc(C(F)(F)F)cc2)nn(-c2cccnc2)c1=O` (single isomer, unassigned) [Example 217, (+)-N-cis-2- Hydroxycyclobutyl-3-oxo-2-(pyridin-3-yl)-6-[4-(trifluoromethyl)phenyl]-2,3-dihydropyridazine-4-carboxamide], the figures for the pIC50 in assay [1], in assay [2] and in assay [3] were < 4.70, 8.15 and 8.61, respectively.

On to `C[C@@H](CO)NC(=O)c1cc(-c2ccc(Cl)cc2)nn(-c2cnsc2)c1=O` [Example 194, (+)-6-(4-Chlorophenyl)-N-[(2S)-1-hydroxypropan-2-yl]-3-oxo-2-(1,2-thiazol-4-yl)-2,3-dihydropyridazine-4-carboxamide], for which the pIC50 was < 4.70 in assay [1], 8.12 in assay [2] and 8.51 in assay [3].

As to `CC(C)(O)CNC(=O)c1cc(-c2ccc(C(F)F)cc2)nn(-c2cccnc2)c1=O` [Example 322, 6-[4-(Difluoromethyl)phenyl]-N-(2-hydroxy-2-methylpropyl)-3-oxo-2-(pyridin-3-yl)-2,3-dihydropyridazine-4-carboxamide], the pIC50 is < 4.70 in assay [1], 7.51 in assay [2] and 7.25 in assay [3].

Take `Cn1cc(-n2nc(-c3ccc(Cl)cc3)cc(C(=O)NCC(C)(C)O)c2=O)cn1` [Example 32, 6-(4-Chlorophenyl)-N-(2-hydroxy-2-methylpropyl)-2-(1-methyl-1H-pyrazol-4-yl)-3-oxo-2,3-dihydropyridazine-4-carboxamide]: the negative logarithm of the IC50 (pIC50) in assay [1] is < 4.70; in assay [2], 7.66; in assay [3], 7.45.

With `O=C(NCC(O)C(F)F)c1cc(-c2ccc(Cl)cc2)nn(-c2cccnc2)c1=O` (single isomer, unassigned; (-)) [Example 87, (−)-6-(4-Chlorophenyl)-N-(3,3-difluoro-2-hydroxypropyl)-3-oxo-2-(pyridin-3-yl)-2,3-dihydropyridazine-4-carboxamide], the negative-log IC50 (pIC50) is < 4.70 in assay [1], 7.67 in assay [2] and 7.53 in assay [3].

Regarding `C[C@@H](CO)NC(=O)c1cc(-c2ccc(OC(F)(F)F)cc2)nn(-c2cccnc2)c1=O` [Example 153, N-[(2S)-1-Hydroxypropan-2-yl]-3-oxo-2-(pyridin-3-yl)-6-[4-(trifluoromethoxy)phenyl]-2,3-dihydropyridazine-4-carboxamide], the negative logarithm of the IC50 (pIC50) in assay [1] was < 4.70; in assay [2], 7.66; in assay [3], 7.62.

As to `O=C(N[C@H]1CCC[C@@H]1O)c1cc(-c2ccc(Cl)cc2)nn(-c2cccnc2)c1=O` [Example 130, 6-(4-Chlorophenyl)-N-[(1S,2S)-2-hydroxycyclopentyl]-3-oxo-2-(pyridin-3-yl)-2,3-dihydropyridazine-4-carboxamide], the pIC50 was < 4.70 in assay [1], 8.19 in assay [2] and 8.18 in assay [3].

For `C[C@@H](CO)NC(=O)c1cc(-c2ccc(C(F)F)cc2)nn(-c2cnn(C)c2)c1=O` [Example 58, 6-[4-(Difluoromethyl)phenyl]-N-[(2S)-1-hydroxypropan-2-yl]-2-(1-methyl-1H-pyrazol-4-yl)-3-oxo-2,3-dihydropyridazine-4-carboxamide], the pIC50 was < 4.70 in assay [1], 7.97 in assay [2] and 7.73 in assay [3].

On to `Cc1cc(-n2nc(-c3ccc(Cl)cc3)cc(C(=O)N[C@@H](C)CO)c2=O)[nH]n1` [Example 193, 6-(4-Chlorophenyl)-N-[(2S)-1-hydroxypropan-2-yl]-2-(3-methyl-1H-pyrazol-5-yl)-3-oxo-2,3-dihydropyridazine-4-carboxamide], for which the negative logarithm of the IC50 (pIC50) in assay [1] was < 4.70; in assay [2] it was 8.52; in assay [3] it was 6.45.

Turning to `Cn1cc(-n2nc(-c3ccc(C(F)(F)F)cc3)cc(C(=O)N[C@@H]3COC[C@@H]3O)c2=O)cn1` (single isomer, unassigned) [Example 231, (−)-N-cis-4-Hydroxytetra-hydrofuran-3-yl-2-(1-methyl-1H-pyrazol-4-yl)-3-oxo-6-[4-(trifluoromethyl)phenyl]-2,3-dihydropyridazine-4-carboxamide], the negative logarithm of the IC50 (pIC50) was < 4.70 in assay [1], 8.00 in assay [2] and 8.10 in assay [3].

For the compound `O=C(N[C@H]1COC[C@@H]1O)c1cc(-c2ccc(Cl)cc2)nn(-c2cccnc2)c1=O` (single isomer, unassigned; enantiomer 2) [Example 170, 6-(4-Chlorophenyl)-N-[(trans)-4-hydroxytetrahydrofuran-3-yl]-3-oxo-2-(pyridin-3-yl)-2,3-dihydropyridazine-4-carboxamide, Enantiomer 2], the pIC50 in assay [1] is < 4.70; in assay [2], 7.65; in assay [3], 7.24.

Consider `Cn1cc(-n2nc(-c3ccc(Cl)cc3)cc(C(=O)N[C@@H]3COC[C@@H]3O)c2=O)cn1` (single isomer, unassigned; enantiomer 1) [Example 44, 6-(4-Chlorophenyl)-N-[(cis)-4-hydroxytetrahydrofuran-3-yl]-2-(1-methyl-1H-pyrazol-4-yl)-3-oxo-2,3-dihydropyridazine-4-carboxamide, Enantiomer 1], for which the pIC50 in assay [1] was < 4.70; in assay [2], 8.03; in assay [3], 7.94.

In the case of `Cn1cc(-n2nc(-c3ccc(C(F)(F)F)cc3)cc(C(=O)N[C@H]3CCC[C@@H]3O)c2=O)cn1` [Example 210, N-[(1S,2S)-2-Hydroxycyclopentyl]-2-(1-methyl-1H-pyrazol-4-yl)-3-oxo-6-[4-(trifluoromethyl)phenyl]-2,3-dihydropyridazine-4-carboxamide], the negative logarithm of the IC50 (pIC50) in assay [1] is < 4.70; in assay [2] it was 8.69; in assay [3], 8.84.

As for `O=C(N[C@H]1COC[C@H]1O)c1cc(-c2ccc(Cl)cc2)nn(-c2cccnc2)c1=O` (single isomer, unassigned) [Example 172, 6-(4-chlorophenyl)-N-[(cis)-4-hydroxytetrahydrofuran-3-yl]-3-oxo-2-(pyridin-3-yl)-2,3-dihydropyridazine-4-carboxamide], the pIC50 in assay [1] is < 4.70; in assay [2], 7.63; in assay [3] it was 7.53.

For the compound `CC(C)(O)CNC(=O)c1cc(-c2ccc(C(F)(F)F)cc2)nn(-c2cccnc2)c1=O` [Example 115, N-(2-Hydroxy-2-methylpropyl)-3-oxo-2-(pyridin-3-yl)-6-[4-(trifluoromethyl)phenyl]-2,3-dihydropyridazine-4-carboxamide], the values for the pIC50 in assay [1], in assay [2] and in assay [3] were < 4.70, 7.96 and 8.58, respectively.
